Values quoted from earlier work as cited in patent publication US7452871B2, “Compositions and methods for treating mammals with modified alginates and modified pectins” (EcoNugenics, Inc., priority 1999, dated 2008).

Tests used:
[1] = test system: cancer metastasis; settings: modified citrus pectin: oral administration
[2] = rats
[3] = rats; remark: listed apart in the source

| Substance | suppressing or preventing metastases [1] | cholesterol excretion [2] | blood glucose levels after glucose administration [3] |
| --- | --- | --- | --- |
| modified citrus pectin | may be effective in suppressing or preventing metastases | – | – |
| AG-270 | – | enhanced cholesterol secretion | inhibited blood glucose levels from rising |
| AG-10 | – | enhanced cholesterol secretion | inhibited blood glucose levels from rising |
